{
  "source": "patent US6814972B2",
  "about": "“Composition for prevention and/or treatment of vascular diseases, comprising propionyl L-carnitine and coenzyme Q10” (priority 2000, dated 2004)",
  "key": {"[1]": {"system": "vascular thrombosis of the rat tail induced by K-carrageenin and endothelin-1", "test": "Experimental thrombotic vascular disease test (K-carrageenin + endothelin-1, rat tail)", "assay_type": "in vivo", "settings": "for % inhibition of thrombosis after 2 h: 2 h after K-carrageenin; for % inhibition of thrombosis after 24 h: 24 h after K-carrageenin; for protective effect against the onset or severity of the vasculopathy lesions induced (in words): summary of Tables 1 and 2", "experimental": "The method used in these tests was that described by Bekemeier (Bekemeier H., Agents and Actions, 16:446, 1985) modified by Bertelli (Bertelli A., Drugs Exptl. Clin. Res., 19:7, 1993) which consists in injecting K-carrageenin (0.5 mg/kg carrageenin, Sigma Chemical St. Louis Mo., USA) into the dorsal artery of the rat tail and, immediately prior to the K-carrageenin injection, 500 pmol/kg of endothelin-1 (Peninsula Laboratories, Belmont Calif., USA) by intravenous injection. With this method, as early as the second hour after injection of K-carrageenin, vascular thrombosis developed which could be estimated by measuring the length of the infarcted portion of the tail, the length of the entire tail and the ratio between the two (% infarcted tail).\nThe phenomenon was assessed two and twenty-four hours after injection of K-carrageenin. […]"}, "[2]": {"system": "mice administered scopolamine", "test": "Learning test (water maze, scopolamine-treated mice)", "assay_type": "in vivo, mouse", "settings": "for activity in the learning test (in words): summary of Table 5; for Latency period, administration (per os, 3 days): oral for three consecutive days, carnitines 300 mg/kg, coenzyme Q10 20 mg/kg; for Latency period, administration (per os, 3 days) / Latency period, administration (I.P.): scopolamine 3 mg/kg i.p.; for Latency period, administration (I.P.): single intraperitoneal dose one hour before test, carnitines 100 mg/kg, coenzyme Q10 50 mg/kg", "experimental": "These tests were performed in mice using the water maze procedure as described by Morris (Morris R., J. Neurosci. Meth., 11:47, 1984) and modified by Lin (Lin Y., Acta Pharmacol. Sin., 19:413, 1998). The procedure consists in placing, in a maze situated in a tank containing water (80 cm×50 cm×20 cm) 10 cm deep, mice of both sexes weighing approximately 20 g each, which, after a suitable period of training in the task of finding their way back to the final platform and after selecting those that took less than 20 min to do so, were divided into various groups.\nBoth intraperitoneal and oral administration were carried out one hour prior to the start of the test. Half an hour before the start all the animals were administered scopolamine intraperitoneally at the dose of 3 mg/kg. As is known, scopolamine induces abnormalities of spatial orientation and prolongs latency time in finding the way to reach the platform.\nAfter the test the latency time to reach the platform was calculated for each animal."}, "[3]": {"system": "ischaemic area caused by occlusion of middle cerebral artery (MCA)", "test": "Experimental cerebral ischaemia test (endothelin-1 occlusion of middle cerebral artery)", "assay_type": "in vivo, rat", "settings": "for Extent of cerebral ischaemia due to occlusion of the MCA (% reduction in volume compared to controls): intravenous, five minutes after endothelin injection, carnitines 100 mg/kg, coenzyme Q10 50 mg/kg, evaluated three days later; for ability to reduce the extent of the ischaemia induced by occlusion of the MCA (in words): summary of Table 3", "experimental": "With this test, the ischaemic area caused by occlusion of middle cerebral artery (MCA) was evaluated using the method described by Scharkey (Scharkey Y., Nature, 371:336, 1994), performed by injecting endothelin-1 (120 pmol in […]) in 5 minutes into anaesthetised rats with a microcannula placed stereotactically in the piriform cortex at the level of the middle cerebral artery. With this method, occlusion of the middle cerebral artery is induced and the resulting ischaemic area can be visualised three days later with transcardiac perfusion of a paraformaldehyde solution (4% in PBS). After extracting the cerebral mass, the latter was placed for twenty-four hours in a fixative containing 10% sucrose, and cryostat sections ([…]) fixed with resyl violet were examined under the optical microscope. The volume of the infarcted area was calculated according to the method described by Park (Park C. K., Ann. Neurol., 20:150, 1989)."}, "[4]": {"system": "papillary muscle of rabbit heart subjected to hypoxia", "test": "Myocardial anti-anoxic activity test (ATP in hypoxic papillary muscle)", "assay_type": "in vivo", "settings": "for ATP concentrations, after hypoxia / ATP concentrations, before hypoxia: daily i.v. for three days (carnitines 100 mg/kg, combination 5 x 25 mg/kg, coenzyme Q10 50 mg/kg); for ATP concentrations, after hypoxia: after a 90 min anoxia period; for ATP concentrations, before hypoxia: papillary muscle under oxygen perfusion for 90 min; for preservation of ATP concentrations in papillary muscle (in words): summary of Table 4", "description": "This test was used to assess the ability of propionyl L-carnitine to protect the myocardium against the loss of ATP induced by anoxia and to preserve energy capacity even in these conditions.\nAn attempt was therefore made to establish whether prior treatment with propionyl L-carnitine, L-carnitine, carnitine combination or coenzyme Q10 alone or in combination with propionyl L-carnitine or with the other preparations was capable of preserving normal ATP concentrations in the hypoxic myocardium.\nAfter three days of treatment, all the animals were sacrificed. Sections of papillary muscle measuring 1 mm in diameter and 4-5 mm in thickness were isolated. These samples of papillary muscle were perfused in a thermostatic bath with a saturated solution of 100% O2. The hypoxia was then produced by introducing 100% N2 in the bath in place of O2. The ATP concentrations in papillary muscle were measured using the method described by Strehler (Strehler B. L., Methods in Enzymology, 111, N.Y. Acad. Press, 879, 1957). The analysis was done on tissue samples maintained under oxygen perfusion for 90 min and after a 90 min anoxia period."}, "[5]": {"system": "Sprague-Dawley male rats", "test": "Toxicology test, single oral administration of high doses", "assay_type": "in vivo", "settings": "propionyl L-carnitine 2 g/kg, coenzyme Q10 0.2 g/kg, or the same amounts in combination", "description": "Their use in combination also produces no damaging toxicological effects."}, "[6]": {"settings": "intravenous administration, carnitines 50 mg/kg (combination 5 x 10 mg/kg), coenzyme Q10 20 mg/kg"}, "[7]": {"settings": "oral administration for four days prior to the test, carnitines 300 mg/kg (combination 5 x 75 mg/kg), coenzyme Q10 100 mg/kg"}},
  "note": "Entries after “also recorded” stand apart in the source; their conditions may differ.",
  "data": [
    {"smiles": "CC(=O)O[C@H](CC(=O)[O-])C[N+](C)(C)C", "note": "[Acetyl L-carnitine, acetyl L-carnitine]", "values": [
      {"measurement": "% inhibition of thrombosis after 2 h", "setting": "[1]; [6]", "value": "8.8 ± 0.7", "unit": "%"},
      {"measurement": "% inhibition of thrombosis after 24 h", "setting": "[1]; [6]", "value": "10.6 ± 0.8", "unit": "%"},
      {"measurement": "% inhibition of thrombosis after 2 h", "setting": "[1]; [7]", "value": "9.2 ± 0.8", "unit": "%"},
      {"measurement": "% inhibition of thrombosis after 24 h", "setting": "[1]; [7]", "value": "11.5 ± 1.5", "unit": "%"},
      {"measurement": "protective effect against the onset or severity of the vasculopathy lesions induced (in words)", "setting": "[1]", "value": "ineffective"},
      {"measurement": "activity in the learning test (in words)", "setting": "[2]", "value": "only poor activity"},
      {"measurement": "Extent of cerebral ischaemia due to occlusion of the MCA (% reduction in volume compared to controls)", "setting": "[3]", "value": "15.8 ± 1.4", "unit": "%"},
      {"measurement": "ability to reduce the extent of the ischaemia induced by occlusion of the MCA (in words)", "setting": "[3]", "value": "no significant protective effect"},
      {"measurement": "ATP concentrations, after hypoxia", "setting": "[4]", "value": "0.54 ± 0.075", "unit": "µmol/g tissue"},
      {"measurement": "ATP concentrations, before hypoxia", "setting": "[4]", "value": "1.58 ± 0.98", "unit": "µmol/g tissue"}
    ]},
    {"smiles": "COC1=C(OC)C(=O)C(C/C=C(\\C)CC/C=C(\\C)CC/C=C(\\C)CC/C=C(\\C)CC/C=C(\\C)CC/C=C(\\C)CC/C=C(\\C)CC/C=C(\\C)CC/C=C(\\C)CCC=C(C)C)=C(C)C1=O", "note": "[Coenzyme Q10, coenzyme Q10]", "values": [
      {"measurement": "% inhibition of thrombosis after 2 h", "setting": "[1]; [6]", "value": "11.7 ± 0.9", "unit": "%"},
      {"measurement": "% inhibition of thrombosis after 24 h", "setting": "[1]; [6]", "value": "14.5 ± 1.3", "unit": "%"},
      {"measurement": "% inhibition of thrombosis after 2 h", "setting": "[1]; [7]", "value": "13.8 ± 1.7", "unit": "%"},
      {"measurement": "% inhibition of thrombosis after 24 h", "setting": "[1]; [7]", "value": "12.5 ± 1.7", "unit": "%"},
      {"measurement": "protective effect against the onset or severity of the vasculopathy lesions induced (in words)", "setting": "[1]", "value": "poorly effective"},
      {"measurement": "Latency period, administration (per os, 3 days)", "setting": "[2]", "value": "31 ± 12", "unit": "s"},
      {"measurement": "Latency period, administration (I.P.)", "setting": "[2]", "value": "31 ± 18", "unit": "s"},
      {"measurement": "Extent of cerebral ischaemia due to occlusion of the MCA (% reduction in volume compared to controls)", "setting": "[3]", "value": "22.2 ± 2.9", "unit": "%"},
      {"measurement": "ATP concentrations, after hypoxia", "setting": "[4]", "value": "0.64 ± 0.068", "unit": "µmol/g tissue"},
      {"measurement": "ATP concentrations, before hypoxia", "setting": "[4]", "value": "1.65 ± 0.7", "unit": "µmol/g tissue"},
      {"measurement": "preservation of ATP concentrations in papillary muscle (in words)", "setting": "[4]", "value": "at least partially maintaining the ATP concentrations"}
    ]},
    {"smiles": "C[N+](C)(C)C[C@H](O)CC(=O)[O-]", "note": "[L-carnitine]", "values": [
      {"measurement": "% inhibition of thrombosis after 2 h", "setting": "[1]; [6]", "value": "9.5 ± 0.4", "unit": "%"},
      {"measurement": "% inhibition of thrombosis after 24 h", "setting": "[1]; [6]", "value": "11.5 ± 0.9", "unit": "%"},
      {"measurement": "% inhibition of thrombosis after 2 h", "setting": "[1]; [7]", "value": "8.5 ± 0.5", "unit": "%"},
      {"measurement": "% inhibition of thrombosis after 24 h", "setting": "[1]; [7]", "value": "9.2 ± 1.2", "unit": "%"},
      {"measurement": "protective effect against the onset or severity of the vasculopathy lesions induced (in words)", "setting": "[1]", "value": "ineffective"},
      {"measurement": "Latency period, administration (per os, 3 days)", "setting": "[2]", "value": "39 ± 21", "unit": "s"},
      {"measurement": "Latency period, administration (I.P.)", "setting": "[2]", "value": "40 ± 20", "unit": "s"},
      {"measurement": "activity in the learning test (in words)", "setting": "[2]", "value": "inactive"},
      {"measurement": "Extent of cerebral ischaemia due to occlusion of the MCA (% reduction in volume compared to controls)", "setting": "[3]", "value": "10.5 ± 0.77", "unit": "%"},
      {"measurement": "ability to reduce the extent of the ischaemia induced by occlusion of the MCA (in words)", "setting": "[3]", "value": "no significant protective effect; also recorded: much less pronounced"},
      {"measurement": "ATP concentrations, after hypoxia", "setting": "[4]", "value": "0.5 ± 0.045", "unit": "µmol/g tissue"},
      {"measurement": "ATP concentrations, before hypoxia", "setting": "[4]", "value": "1.55 ± 0.8", "unit": "µmol/g tissue"},
      {"measurement": "preservation of ATP concentrations in papillary muscle (in words)", "setting": "[4]", "value": "Much more limited"}
    ]},
    {"smiles": "CCC(=O)O[C@H](CC(=O)[O-])C[N+](C)(C)C", "note": "[Propionyl L-carnitine, propionyl L-carnitine]", "values": [
      {"measurement": "% inhibition of thrombosis after 2 h", "setting": "[1]; [6]", "value": "16.25 ± 0.7", "unit": "%"},
      {"measurement": "% inhibition of thrombosis after 24 h", "setting": "[1]; [6]", "value": "26.45 ± 1.9", "unit": "%"},
      {"measurement": "% inhibition of thrombosis after 2 h", "setting": "[1]; [7]", "value": "14.5 ± 0.7", "unit": "%"},
      {"measurement": "% inhibition of thrombosis after 24 h", "setting": "[1]; [7]", "value": "30.5 ± 3.3", "unit": "%"},
      {"measurement": "protective effect against the onset or severity of the vasculopathy lesions induced (in words)", "setting": "[1]", "value": "protective effect"},
      {"measurement": "Latency period, administration (per os, 3 days)", "setting": "[2]", "value": "30 ± 16", "unit": "s"},
      {"measurement": "Latency period, administration (I.P.)", "setting": "[2]", "value": "32 ± 12", "unit": "s"},
      {"measurement": "toxic effects or signs of intolerance", "setting": "[5]", "value": "failed to reveal any toxic effects or signs of intolerance"},
      {"measurement": "Extent of cerebral ischaemia due to occlusion of the MCA (% reduction in volume compared to controls)", "setting": "[3]", "value": "30.3 ± 3.6", "unit": "%"},
      {"measurement": "ability to reduce the extent of the ischaemia induced by occlusion of the MCA (in words)", "setting": "[3]", "value": "good ability to reduce the extent of the ischaemia"},
      {"measurement": "ATP concentrations, after hypoxia", "setting": "[4]", "value": "0.64 ± 0.055", "unit": "µmol/g tissue"},
      {"measurement": "ATP concentrations, before hypoxia", "setting": "[4]", "value": "1.58 ± 0.64", "unit": "µmol/g tissue"},
      {"measurement": "preservation of ATP concentrations in papillary muscle (in words)", "setting": "[4]", "value": "at least partially maintaining the ATP concentrations"}
    ]}
  ]
}
